Consider two molecules from patent US8153787B2 (priority 2005, dated 2012).

≈ marks a conversion by molar mass, not a printed value. Like-named read-outs stand apart in the source and are kept apart here.

The subject of series [1] is Vaccinia virus. Kind of series: microbe, parasite or virus in culture. The format is cell-based. Particulars: Orthopoxvirus vaccinia, read-out: EC50 vaccinia virus.
The nature of series [2]: in vitro. Particulars: human.
For series [3], the system named is Varicella-Zoster Virus (VZV). Kind of series: microbe, parasite or virus in culture. The format is cell-based. Particulars: Human alphaherpesvirus 3, HEL.
Series [4] concerns Human Cytomegalovirus (HCMV). Put plainly: microbe, parasite or virus in culture. In kind it is cell-based.
Series [5] deals with Vaccinia virus. Put plainly: organism not typed. In kind it is cell-based. Particulars: HEL.
A further series has as its system Cowpox virus (Brighton). Put plainly: microbe, parasite or virus in culture. In kind it is cell-based. Particulars: Cowpox virus, HEL, read-out: EC50 Cowpox virus Brighton.
The next series deals with Orf virus (NZ2). Put plainly: microbe, parasite or virus in culture. Particulars: Orf virus, HEL, read-out: EC50 Orf virus NZ2. In kind it is cell-based.
Series [6] concerns Vaccinia virus (Western Reserve) and recombinant viruses harboring the A314T, A684V or A314T+A684V mutations. In kind it is cell-based.
In series [7] the test system is herpes simplex virus type 1 (HSV-1). Put plainly: microbe, parasite or virus in culture. The format is cell-based. Particulars: Human alphaherpesvirus 1, HEL, read-out: EC50 HSV-1 (Kos strain).
The subject of series [8] is herpes simplex virus type 2 (HSV-2). Kind of series: microbe, parasite or virus in culture. In kind it is cell-based. Particulars: Human alphaherpesvirus 2, HEL, read-out: EC50 HSV-2 (G strain).
The subject of series [9] is primate polyomavirus (SV40). Put plainly: microbe, parasite or virus in culture. The format is cell-based, simian polyomavirus SV40. Particulars: Polyomavirus sp., BSC-1, in Primates.
The next series has as its system murine polyomavirus. Put plainly: microbe, parasite or virus in culture. In kind it is cell-based. Particulars: Alphapolyomavirus muris, UC1, UC1B.
The subject of series [10] is Molluscum contagiosum virus (MCV) clinical isolates. Put plainly: microbe, parasite or virus in culture. Particulars: Keratinocyte. The format is cell-based.
The subject of series [11] is vaccinia virus (Lederle strain). Kind of series: microbe, parasite or virus in culture. Particulars: Orthopoxvirus vaccinia, HEL. In kind it is cell-based.
Another series concerns HSV-1 (Kos strain). Kind of series: microbe, parasite or virus in culture. The format is cell-based, Herpes simplex virus type 1. Particulars: Human alphaherpesvirus 1, HEL.
Another series relates to HEL cells. Particulars: human.
The test system of a further series is HSB-2 cells. Particulars: human.
The test system of another series is MOLT-3 cells. Particulars: human.
The nature of series [12]: in vitro. Particulars: human, […].
The nature of series [13]: in vitro. Particulars: African green monkey.
Series [14] can be described thus: in vitro. Particulars: mouse.
Series [15] in a line: in vitro. Particulars: human. This is another data set of the same source.

As for `NC1=NC(=O)N(C[C@@H](CO)OCP(=O)(O)O)CN1` [5,6-dihydro derivative of HPMP-5-azaC, (S)-1-[3-Hydroxy-2-(phosphonomethoxy)propyl]-5,6-dihydro-5-azacytosine], the EC50 in the series with Vaccinia virus [1] is 38 µg/mL (≈ 135 µM). The molecule further gave a CC50 in the series “in vitro [2]” of 120 µg/mL (≈ 425 µM).

With `Nc1ccn(C[C@@H](CO)OCP(=O)(O)O)c(=O)n1` [HPMPC, (S)-1-(3-hydroxy-2-phosphonylmethoxypropyl)cytosine, reference compound], the EC50 came out at 0.05 µg/mL (≈ 0.179 µM) in [3] (read-out: EC50 VZV 07/1 strain (HEL cells)); 0.2 µg/mL (≈ 0.716 µM) in [3] (read-out: EC50 VZV OKA strain (HEL cells)); 0.2 µg/mL (≈ 0.716 µM) in series [4] (Human betaherpesvirus 5, AD169, HEL, read-out: EC50 HCMV AD-169 strain (HEL cells)); 0.3 µg/mL (≈ 1.07 µM) in series [4] (Human betaherpesvirus 5, HEL, read-out: EC50 HCMV Davis strain (HEL cells)); 2.45 µg/mL (≈ 8.78 µM) in the series on Vaccinia virus [5] (read-out: EC50 Vaccinia Virus Lister); 4.35 µg/mL (≈ 15.6 µM) with Vaccinia virus [5] (Orthopoxvirus vaccinia, read-out: EC50 Vaccinia Virus Copenhagen). The EC50 in the series with Vaccinia virus [5] (Orthopoxvirus vaccinia, read-out: EC50 Vaccinia Virus Lederle) turned out to be 2.43 µg/mL (≈ 8.7 µM); in the series on Vaccinia virus [5] (Orthopoxvirus vaccinia, read-out: EC50 Vaccinia Virus WR), 5.82 µg/mL (≈ 20.8 µM); with Cowpox virus (Brighton), 8.43 µg/mL (≈ 30.2 µM); in the series on Orf virus (NZ2), 0.2 µg/mL (≈ 0.716 µM); in series [7] it was 0.16 µg/mL (≈ 0.573 µM); in series [8], 0.54 µg/mL (≈ 1.93 µM). For the same molecule, the EC50 in series [9] (read-out: antiviral activity (EC50) SV40 PML-1 strain EK) was found to be 5.56 µg/mL (≈ 19.9 µM); in [9] (read-out: antiviral activity (EC50) SV40 PML-2 strain DAR), 5.87 µg/mL (≈ 21 µM); in series [9] (read-out: antiviral activity (EC50) SV40 strain A2895), 4.72 µg/mL (≈ 16.9 µM); with murine polyomavirus (read-out: antiviral activity (EC50) 2PTA2), 5.78 µg/mL (≈ 20.7 µM); in the series with murine polyomavirus (read-out: antiviral activity (EC50) LID-1), 5.89 µg/mL (≈ 21.1 µM); with murine polyomavirus (read-out: antiviral activity (EC50) MN/RDE Toronto) it was 2.76 µg/mL (≈ 9.89 µM). For the same molecule, the EC50 is 6.54 µg/mL (≈ 23.4 µM) in the series with murine polyomavirus (read-out: antiviral activity (EC50) PTA); 0.76 µg/mL (≈ 2.72 µM) in [10] (read-out: EC50 MCV 06/02); 0.55 µg/mL (≈ 1.97 µM) in [10] (read-out: EC50 MCV 06/03); 0.55 µg/mL (≈ 1.97 µM) in series [10] (read-out: EC50 MCV 06/04); 0.6 µg/mL (≈ 2.15 µM) in [10] (read-out: EC50 MCV 06/06); 3.98 µg/mL (≈ 14.3 µM) in series [11] (2 h, read-out: EC50 Vaccinia (Lederle strain), Treatment from 2 h till end of experiment). Further, the EC50 in series [11] (read-out: EC50 Vaccinia (Lederle strain), Pretreatment (−16 hours)) came to 5 µg/mL (≈ 17.9 µM); in [11] (read-out: EC50 Vaccinia (Lederle strain), Treatment 2-4 hours), 20 µg/mL (≈ 71.6 µM); in series [11] (read-out: EC50 Vaccinia (Lederle strain), Treatment 2-6 hours) it was 9.06 µg/mL (≈ 32.5 µM); in series [11] (read-out: EC50 Vaccinia (Lederle strain), Treatment 2-8 hours) it was 10 µg/mL (≈ 35.8 µM); with HSV-1 (Kos strain) (2 h, read-out: EC50 HSV-1 (Kos strain), Treatment from 2 h till end of experiment) it was 0.43 µg/mL (≈ 1.54 µM); in the series with HSV-1 (Kos strain) (read-out: EC50 HSV-1 (Kos strain), Pretreatment (−16 hours)), 1 µg/mL (≈ 3.58 µM). Further, the EC50 in the series on HSV-1 (Kos strain) (read-out: EC50 HSV-1 (Kos strain), Treatment 2-4 hours) was 2.51 µg/mL (≈ 8.99 µM); in the series with HSV-1 (Kos strain) (read-out: EC50 HSV-1 (Kos strain), Treatment 2-6 hours) it was 1.1 µg/mL (≈ 3.94 µM); in the series on HSV-1 (Kos strain) (read-out: EC50 HSV-1 (Kos strain), Treatment 2-8 hours), 1 µg/mL (≈ 3.58 µM). In [6], the “EC50 Vaccinia virus (Western Reserve) wild-type” value amounted to 3.1 µg/mL (≈ 11.1 µM). Also, in series [6], the “EC50 recombinant vaccinia virus 314 + 684” value was 39.5 µg/mL. Further, the “EC50 recombinant vaccinia virus 684” value in series [6] came to 14.8 µg/mL. Also, the “EC50 recombinant vaccinia virus A314T” value in series [6] was 22.2 µg/mL. In the series with HEL cells, the “Toxicity MCC (microscop)” value is above 79 µg/mL. Further, the “Toxicity MCC (microscopy), HSB-2 cells” value in the series with HSB-2 cells is 19 µg/mL. Moreover, the “Toxicity MCC (microscopy), MOLT-3 cells” value in the series on MOLT-3 cells is 32 µg/mL. For the same molecule, the CC50 was 68.6 µg/mL (≈ 246 µM) in “in vitro [12]”, 79.4 µg/mL (≈ 284 µM) in the series “in vitro [13]”, 84.3 µg/mL (≈ 302 µM) in “in vitro [14]” and above 79 µg/mL in the series “in vitro [15]”.
